How the values were obtained:
5-HT2A [1] = target: T1, 5-HT2A (Homo sapiens, UniProt P28223); test: Serotonin 5-HT2A in vitro cellular IPOne agonism assay (HTRF); format: cell-based; parameters: host or cells: CHO-K1; conditions: CHO-K1 cells, agonist mode
Experimental: (§1) Serotonin 5-HT2A In Vitro Cellular IPOne Agonism Assay. The 5-HT2A IPOne HTRF assay was performed at Epics Therapeutics S.A. (Belgium, FAST-0505I) using conventional methods. Briefly, CHO-K1 cells expressing human recombinant 5-HT2A receptor grown to mid-log phase in culture media without antibiotics were detached with PBS-EDTA, centrifuged, and resuspended in medium without antibiotics buffer. 20,000 cells were distributed in a 96 well plate and incubated overnight at 37° C. with 5% Co2.
For agonist testing, the medium was removed and 20 μl of assay buffer plus 20 μl of test compound or reference agonist were added in each well. The plate was incubated for 60 min. at 37° C. with 5% CO2.
(§2) After addition of the lysis buffer containing IP1-d2 and anti-IP1 cryptate detection reagents, plates were incubated 1-hour at room temperature, and fluorescence ratios were measured according to the manufacturer specification, with the HTRF kit.

5-HT2A [2] = target: T1, 5-HT2A; test: Serotonin 5-HT2A in vitro radioligand binding competition assay ([3H]-DOI); parameters: purchased Epics Therapeutics S.A. (Belgium) FAST-0505B; conditions: [3H]-DOI radiotracer, membrane extracts
Experimental: Serotonin 5-HT2A In Vitro Radioligand Binding Competition Assay. The 5-HT2A radioligand binding competition assay was performed at Epics Therapeutics S.A. (Belgium, FAST-0505B) using conventional methods. Briefly, competition binding was performed in duplicate in the wells of a 96 well plate (Master Block, Greiner, 786201) containing binding buffer (optimized for each receptor), membrane extracts (amount of protein/well optimized for each receptor), radiotracer [^3H]-DOI (final concentration optimized for each receptor) and test compound. Nonspecific binding was determined by co-incubation with 200-fold excess of cold competitor. The samples were incubated in a final volume of 0.1 ml at a temperature and for a duration optimized for each receptor and then filtered over filter plates. Filters were washed six times with 0.5 ml of ice-cold washing buffer (optimized for each receptor) and 50 μl of Microscint 20 (Packard) were added in each well. The plates were incubated 15 min on an orbital shaker and then counted with a TopCount™ for 1 min/well.

5-HT2A [3] = target: T1, 5-HT2A; test: Serotonin 5-HT2A in vitro cellular IPOne antagonism assay (HTRF); format: cell-based; parameters: host or cells: CHO-K1; conditions: CHO-K1 cells, reference agonist α-Me-5HT; read-out: 5-HT2A IPOne Antagonist Activity
Experimental: as §1, with “Antagonism” for “Agonism”, “FAST-O0505) in antagonism mode” for “FAST-0505I)”
For antagonist testing, a reference agonist α-Me-5HT was added and fluorescence signal monitored for several minutes, followed by addition of 20 μl of assay buffer plus 20 μl of test compound or reference antagonist ketanserin, in each well. The plate was incubated for 60 min. at 37° C. with 5% CO2.
as §2

T1 sequence (P28223 whole entry): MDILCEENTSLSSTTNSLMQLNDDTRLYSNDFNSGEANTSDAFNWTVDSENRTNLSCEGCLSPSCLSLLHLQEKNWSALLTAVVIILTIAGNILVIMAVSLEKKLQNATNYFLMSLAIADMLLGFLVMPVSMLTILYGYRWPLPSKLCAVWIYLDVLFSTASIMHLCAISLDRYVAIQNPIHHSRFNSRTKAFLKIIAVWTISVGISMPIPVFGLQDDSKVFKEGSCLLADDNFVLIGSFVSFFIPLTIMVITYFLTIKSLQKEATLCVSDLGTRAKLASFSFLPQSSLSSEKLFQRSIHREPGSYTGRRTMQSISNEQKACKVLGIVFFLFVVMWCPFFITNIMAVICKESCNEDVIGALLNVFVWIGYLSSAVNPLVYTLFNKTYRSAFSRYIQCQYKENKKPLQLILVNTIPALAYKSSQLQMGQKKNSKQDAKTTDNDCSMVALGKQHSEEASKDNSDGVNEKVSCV

Row | SMILES | EC50 (5-HT2A [1]) | IC50 (5-HT2A [2]) | IC50 (5-HT2A [3])
1 | CC(N)Cc1cnn2ccccc12 (stereo not drawn) [Compound 48, 1-(pyrazolo[1,5-a]pyridin-3-yl)propan-2-amine] | 1 to 10 µM | > 10 µM | –
2 | C[C@@H](Cc1ncc2ccccn12)N(C)C [Compound 29, (S)-1-(imidazo[1,5-a]pyridin-3-yl)-N,N-dimethylpropan-2-amine] | > 10 µM | 1 to 10 µM | –
3 | CC(N)Cc1cnc2cc(F)ccn12 (stereo not drawn) [Compound 35, 1-(7-Fluoroimidazo[1,2-a]pyridin-3-yl)propan-2-amine] | > 10 µM | > 10 µM | –
4 | Cc1nc(CCN)c2ccccn12 [Compound 41, 2-(3-methylimidazo[1,5-a]pyridin-1-yl)ethan-1-amine] | > 10 µM | > 10 µM | –
5 | Cc1cccn2c(CC(C)N)ncc12 (stereo not drawn) [Compound 8, 1-(8-methylimidazo[1,5-a]pyridin-3-yl)propan-2-amine] | 1 to 10 µM | 1 to 10 µM | > 10 µM
6 | COc1ccn2c(CC(C)N)cnc2c1 (stereo not drawn) [Compound 34, 1-(7-methoxyimidazo[1,2-a]pyridin-3-yl)propan-2-amine] | > 10 µM | > 10 µM | –
7 | CN1CCC(c2ncc3ccccn23)C1 (stereo not drawn) [Compound 32, 3-(1-methylpyrrolidin-3-yl)imidazo[1,5-a]pyridine] | > 10 µM | 0.101 to 1 µM | 1 to 10 µM
8 | c1ccn2c(CC3CCCN3)ncc2c1 (stereo not drawn) [Compound 13, 3-(Pyrrolidin-2-ylmethyl)imidazo[1,5-a]pyridine] | > 10 µM | 1 to 10 µM | 1 to 10 µM
9 | CC(C)NC(C)Cc1ncc2ccccn12 (stereo not drawn) [Compound 26, 1-(imidazo [1,5-a]pyridin-3-yl)-N-isopropylpropan-2-amine] | > 10 µM | 0.101 to 1 µM | 0.101 to 1 µM
10 | CC(C)(N)Cc1ncc2ccccn12 [Compound 6, 1-(imidazo [1,5-a]pyridin-3-yl)-2-methylpropan-2-amine] | > 10 µM | 1 to 10 µM | 0.101 to 1 µM
11 | Cc1nc(CC(C)N)n2ccccc12 (stereo not drawn) [Compound 11, 1-(1-methylimidazo[1,5-a]pyridin-3-yl)propan-2-amine] | 1 to 10 µM | 1 to 10 µM | –
12 | CC(Cc1ncc2ccccn12)N1CCCC1 (stereo not drawn) [Compound 27, 3-(2-(pyrrolidin-1-yl)propyl)imidazo[1,5-a]pyridine] | > 10 µM | 1 to 10 µM | 1 to 10 µM
13 | CC(N)Cc1ncc2cc(F)ccn12 (stereo not drawn) [Compound 4, 1-(7-fluoroimidazo[1,5-a]pyridin-3-yl)propan-2-amine] | > 10 µM | 0.101 to 1 µM | 1 to 10 µM
14 | Cc1cccc2cnc(CC(C)N(C)C)n12 (stereo not drawn) [Compound 20, N,N-dimethyl-1-(5-methylimidazo [1,5-a]pyridin-3-yl)propan-2-amine] | > 10 µM | > 10 µM | –
15 | CC(Cc1cnn2ccccc12)N(C)C (stereo not drawn) [Compound 50, N,N-dimethyl-1-(pyrazolo[1,5-a]pyridin-3-yl)propan-2-amine] | > 10 µM | > 10 µM | –
16 | CC(Cc1cnc2cc(F)ccn12)N(C)C (stereo not drawn) [Compound 38, 1-(7-Fluoroimidazo[1,2-a]pyridin-3-yl)-N,N-dimethylpropan-2-amine] | > 10 µM | > 10 µM | –
17 | Cc1ccc2cnc(CC(C)N)n2c1 (stereo not drawn) [Compound 10, 1-(6-methylimidazo[1,5-a]pyridin-3-yl)propan-2-amine] | 1 to 10 µM | 1 to 10 µM | –
18 | CC(N)Cc1cnc2ccccn12 (stereo not drawn) [Compound 33, 1-(imidazo[1,2-a]pyridin-3-yl)propan-2-amine] | > 10 µM | > 10 µM | –
19 | CC(N)Cc1ncc2ccccn12 (stereo not drawn) [Compound 2, 1-(imidazo [1,5-a]pyridin-3-yl)propan-2-amine] | 0.101 to 1 µM | 1 to 10 µM | –
20 | COc1ccn2c(CC(C)N(C)C)cnc2c1 (stereo not drawn) [Compound 37, 1-(7-Methoxyimidazo[1,2-a]pyridin-3-yl)-N,N-dimethylpropan-2-amine] | > 10 µM | > 10 µM | –

Row | SMILES | EC50 (5-HT2A [1]) | IC50 (5-HT2A [2]) | IC50 (5-HT2A [3])
21 | Cc1nc(CC(C)N(C)C)c2ccc(F)cn12 (stereo not drawn) [Compound 46, 1-(6-fluoro-3-methylimidazo [1,5-a]pyridin-1-yl)-N,N-dimethylpropan-2-amine] | > 10 µM | 1 to 10 µM | –
22 | Cc1cccc2cnc(CC(C)N)n12 (stereo not drawn) [Compound 7, 1-(5-methylimidazo[1,5-a]pyridin-3-yl)propan-2-amine] | 1 to 10 µM | 1 to 10 µM | –
23 | Cc1nc(CCN(C)C)c2ccccn12 [Compound 45, N,N-dimethyl-2-(3-methylimidazo [1,5-a]pyridin-1-yl)ethan-1-amine] | > 10 µM | > 10 µM | –
24 | NCCc1cnn2ccccc12 [Compound 47, 2-(Pyrazolo[1,5-a]pyridin-3-yl)ethan-1-amine] | > 10 µM | > 10 µM | –
25 | NCCc1ncn2ccccc12 [Compound 39, 2-(Imidazo[1,5-a]pyridin-1-yl)ethan-1-amine] | 1 to 10 µM | 1 to 10 µM | –
26 | CC(N)Cc1ncn2ccccc12 (stereo not drawn) [Compound 40, 1-(imidazo[1,5-a]pyridin-1-yl)propan-2-amine] | > 10 µM | 1 to 10 µM | –
27 | CC(Cc1ncc2ccccn12)N1CCOCC1 (stereo not drawn) [Compound 28, 4-(1-(Imidazo[1,5-a]pyridin-3-yl)propan-2-yl)morpholine] | > 10 µM | 1 to 10 µM | –
28 | NCCc1ncc2ccccn12 [Compound 1, 2-(imidazo[1,5-a]pyridin-3-yl)ethan-1-amine] | > 10 µM | 1 to 10 µM | –
29 | Cc1nc(CC(C)N)n2ccc(F)cc12 (stereo not drawn) [Compound 5, 1-(7-fluoro-1-methylimidazo [1,5-a]pyridin-3-yl)propan-2-amine] | 1 to 10 µM | 1 to 10 µM | –
30 | COc1ccn2c(CC(C)N)ncc2c1 (stereo not drawn) [Compound 3, 1-(7-methoxyimidazo[1,5-a]pyridin-3-yl)propan-2-amine] | > 10 µM | 1 to 10 µM | –
31 | CCN(CC)C(C)Cc1ncc2ccccn12 (stereo not drawn) [Compound 25, N,N-diethyl-1-(imidazo[1,5-a]pyridin-3-yl)propan-2-amine] | > 10 µM | 1 to 10 µM | –
32 | Cc1nc(CC(C)N(C)C)n2ccc(F)cc12 (stereo not drawn) [Compound 18, 1-(7-fluoro-1-methylimidazo [1,5-a]pyridin-3-yl)-N,N-dimethylpropan-2-amine] | > 10 µM | 1 to 10 µM | –
33 | CC(Cc1cnc2ccccn12)N(C)C (stereo not drawn) [Compound 36, 1-(imidazo[1,2-a]pyridin-3-yl)-N,N-dimethylpropan-2-amine] | > 10 µM | > 10 µM | –
34 | Cc1cccn2c(CC(C)N(C)C)ncc12 (stereo not drawn) [Compound 21, N,N-dimethyl-1-(8-methylimidazo [1,5-a]pyridin-3-yl)propan-2-amine] | > 10 µM | 1 to 10 µM | –
35 | CN(C)CCc1cnn2ccccc12 [Compound 49, N,N-dimethyl-2-(pyrazolo[1,5-a]pyridin-3-yl)ethan-1-amine] | > 10 µM | > 10 µM | –
36 | COc1ccn2c(CC(C)N(C)C)ncc2c1 (stereo not drawn) [Compound 16, 1-(7-methoxyimidazo[1,5-a]pyridin-3-yl)-N,N-dimethylpropan-2-amine] | > 10 µM | > 10 µM | –
37 | Cc1ccc2cnc(CC(C)N(C)C)n2c1 (stereo not drawn) [Compound 23, N,N-dimethyl-1-(6-methylimidazo [1,5-a]pyridin-3-yl)propan-2-amine] | > 10 µM | > 10 µM | –
38 | Cc1nc(CC(C)N(C)C)n2ccccc12 (stereo not drawn) [Compound 24, N,N-dimethyl-1-(1-methylimidazo [1,5-a]pyridin-3-yl)propan-2-amine] | > 10 µM | > 10 µM | –
39 | Cc1ccn2c(CC(C)N(C)C)ncc2c1 (stereo not drawn) [Compound 22, N,N-dimethyl-1-(7-methylimidazo [1,5-a]pyridin-3-yl)propan-2-amine] | > 10 µM | > 10 µM | –
40 | Cc1nc(CC(C)N)c2ccc(F)cn12 (stereo not drawn) [Compound 42, 1-(6-fluoro-3-methylimidazo[1,5-a]pyridin-1-yl)propan-2-amine] | 1 to 10 µM | 1 to 10 µM | –

Source: patent publication US20250059184A1 (priority 2021, published 2025)
